Data set [1] in a line: Cytotoxicity against MDCK cells. Particulars: dog. In kind it is cell-based, Canis lupus familiaris.
The nature of data set [2]: Inhibition of Influenza A virus H5N1 C-terminal PA interaction to N-terminal PB1 (1 to 25) expressed in human 293T cells by ELISA. The format is cell-based.

The structures appear in SMILES notation.

Seven compounds from ChEMBL document CHEMBL3098103, “High-throughput docking for the identification of new influenza A virus polymerase inhibitors targeting the PA-PB1 protein-protein interaction” (Bioorg Med Chem Lett, 2014) can be followed below.

Take `Cc1ccc(-c2cc(-c3ccccc3)nc(SCC(=O)Nc3cccc(C)c3)c2C#N)cc1`: the midpoint of cytotoxicity in data set [1], the CC50, lay at 100 µM. Moreover, in data set [2], half-maximal inhibition (IC50) was put at 80 µM.

`COc1ccc(-c2cc(-c3ccccc3)nc(SCC(=O)Nc3ccccc3)c2C#N)cc1OC`: in data set [1], the CC50 turned out to be 100 µM. Moreover, in data set [2], it took 125 µM to reach half-maximal inhibition (IC50).

On to `Cc1ccc(-c2cc(-c3ccccc3)nc(S[C@H](C)C(=O)Nc3cccc(Cl)c3)c2C#N)cc1`, for which, in data set [1], the CC50 is 100 µM. Besides, in data set [2], inhibition was half-maximal at 125 µM (IC50).

For the compound `Cc1ccc(-c2cc(-c3ccccc3)nc(SCC(=O)Nc3cccc(Cl)c3)c2C#N)cc1`, the CC50 in data set [1] amounted to 100 µM. The same compound registered an IC50 in data set [2] of 180 µM.

The compound `Cc1ccc(-c2cc(-c3ccccc3)nc(S[C@@H](C)C(=O)Nc3ccc(C)c(C)c3)c2C#N)cc1` returned a CC50 in data set [1] of 100 µM. The midpoint of inhibition in data set [2], the IC50, lay at 180 µM.

On to `N#Cc1c(-c2cccc(Br)c2)cc(-c2ccccc2)nc1SCC(=O)Nc1ccc(Br)cc1`, for which the half-maximal cytotoxic concentration (CC50) in data set [1] is 100 µM. This compound returned an IC50 in data set [2] of 35 µM.

`CCOC(=O)c1ccc(NC(=O)CSc2nc(-c3ccccc3)cc(-c3ccc(OCc4ccccc4)c(OCC)c3)c2C#N)cc1` had a CC50 in data set [1] of 100 µM. For the same compound, the IC50 in data set [2] stood at 30 µM.
